Experimental findings from PubChem BioAssay (NCI) are described below.

Test systems include ACHN renal; HCT-116 colon; HCT-15 colon; HL-60(TB) leukemia; HT29 colon; OVCAR-3 ovarian; OVCAR-5 ovarian; SF-268 CNS; SF-295 CNS; U251 CNS.
Holding throughout (test): NCI tumour cell line growth inhibition, 48 h

Structures are written as SMILES.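 Following 48 hours of exposure in 96-well plates, responses at five concentrations were used to interpolate endpoints linearly. The concentration for 50% growth inhibition is given as GI50. TGI is the concentration that stops growth completely.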

As for `Nc1nc(N)c2nc(CNc3ccc(C(=O)NC(CCNC(=O)c4ccccc4C(=O)O)C(=O)O)cc3)cnc2n1` (stereo not given), the GI50 was 0.0451 µM with ACHN renal, 0.0072 µM in the assay with HCT-15 colon, 0.0863 µM in the assay with OVCAR-5 ovarian and 0.169 µM with SF-268 CNS. Besides, the TGI with ACHN renal, with HCT-116 colon, with HCT-15 colon, in the assay with HL-60(TB) leukemia, in the assay on HT29 colon and in the assay on OVCAR-3 ovarian was greater than 100 µM each time. Besides, the TGI with OVCAR-5 ovarian, in the assay with SF-268 CNS, with SF-295 CNS and in the assay with U251 CNS was greater than 100 µM each time.
Consider `CC1(C)OC2[C@@H](CO[C@@]3([C@H]4OC(C)(C)O[C@@H]4CO)OC(C)(C)O[C@@H]23)O1` (stereo not given in full), for which the TGI with ACHN renal, in the assay on HCT-116 colon, in the assay on HCT-15 colon, with HL-60(TB) leukemia, in the assay with HT29 colon and with OVCAR-3 ovarian was greater than 100 µM throughout. In addition, the TGI in the assay on OVCAR-5 ovarian, with SF-268 CNS, in the assay on SF-295 CNS and in the assay with U251 CNS was greater than 100 µM in each case.
As to `COC(=O)CN(CC1O[C@@H]2OC(C)(C)O[C@@H]2C1NC(C)=O)C(=O)OCc1ccccc1` (stereo not given in full), the TGI with ACHN renal, in the assay on HCT-116 colon, in the assay on HCT-15 colon, in the assay on HL-60(TB) leukemia, with HT29 colon and in the assay with OVCAR-3 ovarian was greater than 100 µM throughout. The TGI with OVCAR-5 ovarian, with SF-268 CNS, with SF-295 CNS and in the assay with U251 CNS was greater than 100 µM throughout.
As to `COc1cc(/C=C/c2ccc(S(N)(=O)=O)cc2)cc(OC)c1`, the GI50 in the assay with ACHN renal is 23.5 µM; in the assay with HCT-15 colon it was 17.4 µM; in the assay with HL-60(TB) leukemia, 18.6 µM; in the assay with HT29 colon, 16.2 µM; in the assay on SF-268 CNS it was 28.3 µM; with U251 CNS it was 17.1 µM. The TGI was 66.3 µM with ACHN renal; 27.5 µM in the assay on HCT-116 colon; 53.5 µM in the assay with HCT-15 colon; 42.6 µM with HL-60(TB) leukemia; 33.2 µM with HT29 colon; 33.2 µM with OVCAR-3 ovarian. The TGI is greater than 100 µM with OVCAR-5 ovarian, greater than 100 µM with SF-268 CNS, 55.5 µM in the assay with SF-295 CNS and greater than 100 µM in the assay with U251 CNS.
On to `O=c1[nH]c(-c2ccc(Cl)cc2)cc2ccsc12`, for which the TGI with ACHN renal is greater than 100 µM; in the assay on HCT-116 colon, greater than 100 µM; in the assay on HCT-15 colon it was greater than 100 µM; with HL-60(TB) leukemia, greater than 100 µM; in the assay with HT29 colon it was greater than 100 µM; in the assay with OVCAR-3 ovarian it was 4.26 µM. The TGI with OVCAR-5 ovarian was greater than 100 µM; with SF-268 CNS, greater than 100 µM; in the assay with SF-295 CNS, 23.4 µM; with U251 CNS it was greater than 100 µM.
Regarding `CCc1n[nH]c(=O)n1N=C(c1ccccc1)c1ccccc1`, the TGI in the assay on ACHN renal, in the assay on HCT-116 colon, with HCT-15 colon, in the assay with HL-60(TB) leukemia, in the assay on HT29 colon and in the assay on OVCAR-3 ovarian was greater than 100 µM each time. The TGI in the assay on OVCAR-5 ovarian, in the assay with SF-268 CNS, in the assay on SF-295 CNS and in the assay with U251 CNS was greater than 100 µM in each case.
On to `C=CC(=C)CCC(Br)C(C)(C)Cl` (stereo not given), for which the TGI with ACHN renal, in the assay with HCT-116 colon, with HCT-15 colon, in the assay with HL-60(TB) leukemia, in the assay on HT29 colon and in the assay with OVCAR-3 ovarian was greater than 100 µM in each case. Moreover, the TGI with OVCAR-5 ovarian, with SF-268 CNS, in the assay with SF-295 CNS and in the assay with U251 CNS was greater than 100 µM in each case.
For `COc1cccc(/C=N/NC(=O)CN(C)C)c1O`, the TGI in the assay with ACHN renal, in the assay on HCT-116 colon, in the assay on HCT-15 colon, with HL-60(TB) leukemia, in the assay on HT29 colon and in the assay with OVCAR-3 ovarian was greater than 100 µM each time. In addition, the TGI in the assay with OVCAR-5 ovarian, with SF-268 CNS, in the assay with SF-295 CNS and in the assay with U251 CNS was greater than 100 µM in each case.
Turning to `CCOC(=O)C(NC(=O)c1ccccc1)(Nc1ccc(S(=O)(=O)Nc2ccc(OC)nn2)cc1)C(F)(F)F` (stereo not given), the TGI in the assay on ACHN renal, in the assay on HCT-116 colon, with HCT-15 colon, in the assay on HL-60(TB) leukemia, in the assay with HT29 colon and with OVCAR-3 ovarian was greater than 100 µM throughout. Besides, the TGI in the assay on OVCAR-5 ovarian, with SF-268 CNS, with SF-295 CNS and with U251 CNS was greater than 100 µM in each case.
In the case of `CC(=O)N1CCN(CCCCN2c3ccccc3Sc3cc(N=[N+]=[N-])ccc32)CC1`, the TGI was determined as 28.2 µM with ACHN renal; 26.7 µM in the assay on HCT-116 colon; 28.1 µM in the assay on HCT-15 colon; 27.3 µM in the assay with HL-60(TB) leukemia; 27.8 µM with HT29 colon; 25.3 µM with OVCAR-3 ovarian. For the same molecule, the TGI with OVCAR-5 ovarian stood at 26.6 µM; in the assay on SF-268 CNS it was 39.1 µM; in the assay on SF-295 CNS it was 31.5 µM; in the assay on U251 CNS, 27.6 µM.
As for `O=C1c2ccccc2C(=O)c2c(NCC3CO3)cccc21` (stereo not given), the TGI in the assay on ACHN renal was 31.4 µM; in the assay on HCT-116 colon, 17.6 µM; in the assay on HCT-15 colon it was 32 µM; with HL-60(TB) leukemia it was 15.8 µM; in the assay on HT29 colon it was greater than 86 µM; with OVCAR-3 ovarian, greater than 45.8 µM. For the same molecule, the TGI with OVCAR-5 ovarian is greater than 100 µM; with SF-268 CNS, 17.9 µM; in the assay on SF-295 CNS, greater than 100 µM; in the assay with U251 CNS, greater than 100 µM.
`c1ccc(Sc2nc(Sc3ccccc3)nc(Sc3ccccc3)n2)cc1`: the TGI with ACHN renal was greater than 100 µM; in the assay on HCT-116 colon, greater than 100 µM; in the assay with HCT-15 colon, greater than 100 µM; in the assay on HL-60(TB) leukemia, greater than 100 µM; with HT29 colon, greater than 100 µM; with OVCAR-3 ovarian, 34.5 µM. Besides, the TGI in the assay on OVCAR-5 ovarian, in the assay on SF-268 CNS, with SF-295 CNS and with U251 CNS was greater than 100 µM each time.
